The record followed here is PubChem BioAssay AID179 (DTP/NCI, 2004).

Calls of active or inactive are those of the source.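 The calls were made as follows: active = compounds giving half or more protection of infected cells from virus-caused growth loss, again on retest; inactive = the rest.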

The subject of this experiment is CEM cells HIV-1 protection, formazan growth assay. In words: NCI AIDS Antiviral Assay. Particulars: for IC50: measured here: growth of uninfected CEM cells. The procedure, abridged: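 Protection of CEM cells against HIV-1 was scored from cell growth (soluble formazan) across five concentrations, with parallel uninfected cells. Lack of protection may reflect toxicity.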

Regarding `O=C1NC(=O)C2(CCCCCC2)N1`, the EC50 is more than 200 µM and the IC50 is more than 200 µM. Take `O=S1(=O)CC2(N3CCOCC3)CCCCC21` (configuration not stated): the EC50 is more than 1020 µM and the IC50 was more than 1020 µM. Regarding `Cc1ccc(NC(=O)/C(CC(=O)c2sc(Nc3ccc(Cl)c(Cl)c3)nc2C)=N\Nc2ccc([N+](=O)[O-])cc2[N+](=O)[O-])c(C)c1`, the EC50 was more than 200 µM and the IC50 worked out at 25.1 µM. On to `O=c1[nH]c(Nc2cc(Cl)cc(Cl)c2)nc2nc[nH]c12`, for which the EC50 was more than 200 µM and the IC50 is more than 200 µM.

`Cc1ccccc1N=C(N)Nc1ccccc1C`: the EC50 was more than 200 µM and the IC50 is more than 200 µM. For `C=C1c2nc3ccccc3n2C=C(c2ccccc2)N1c1ccc([N+](=O)[O-])cc1`, the EC50 is more than 200 µM and the IC50 amounted to 42.7 µM. Take `Cc1noc(C)c1-c1onc2ccc(Cl)cc12`: the EC50 was more than 28.8 µM and the IC50 was more than 28.8 µM. As to `CC1C(c2cc(C(C)(C)C)c(O)c(C(C)(C)C)c2)c2cc3c(cc2OC1N1CCOCC1)OCO3` (configuration not stated), the EC50 is more than 200 µM and the IC50 is more than 200 µM. For `C[C@H]1CCC/C=C/[C@@H]2C[C@H](O)C[C@H]2[C@H](O)/C=C/C(=O)O1`, the EC50 is more than 891 µM and the IC50 came out at 0.282 µM. For `Cn1c2ccccc2c2cc(-c3ccccc3)c3c(c21)C(=O)c1ccccc1C3=O`, in that order: more than 13.5 µM and more than 13.5 µM. For `Cc1cc2c(c3oc(C4(C)OC4C4OC4C)cc(=O)c13)C(=O)c1c(O)c(C3CC(C)(N(C)C)C(O)C(C)O3)cc(C3CC(N(C)C)C(O)C(C)O3)c1C2=O` (configuration not stated) the same measures were more than 0.002 µM and 9.55e-05 µM. For `O=C1c2ccccc2C(=O)N1n1c(Cc2ccccc2)n[nH]c1=O` the same measures were more than 200 µM and more than 200 µM.

On to `CC(=O)N1C(Nc2ccccc2)CCN1c1ccccc1` (configuration not stated), for which the EC50 was more than 200 µM and the IC50 was determined as 11.2 µM.

`C[C@]12CCC(=O)C=C1CC[C@H]1[C@@H]3CC[C@@]4(OCC4=O)[C@@]3(C)C[C@H](O)[C@@]12F`: the EC50 is more than 123 µM and the IC50 is more than 123 µM. On to `CCOC(OC1=CCCC1)C(C)[Se]c1ccccc1` (configuration not stated), for which the EC50 is more than 22.4 µM and the IC50 was more than 22.4 µM. For `NC(=O)NC(=NCc1ccccc1)NCc1ccccc1`, the EC50 is more than 776 µM and the IC50 turned out to be 107 µM. As for `CC(C)(C)c1cc(COc2c3sc(=S)sc3c(OCc3cc(C(C)(C)C)cc(C(C)(C)C)c3)c3sc(=S)sc23)cc(C(C)(C)C)c1`, the outcome was inactive.

For the compound `Cc1ccc(S(=O)(=O)Nn2c3c(cc(C#N)c2=O)CCCC3)cc1`, the EC50 was more than 200 µM and the IC50 was more than 200 µM. As to `COC(=O)C1=NC(=S)NC(c2ccccc2)C1c1nc2ccccc2s1` (configuration not stated), the result was inactive. For `COc1ccc2c(c1)CSCC2=O`, the EC50 was more than 513 µM and the IC50 was more than 200 µM. For `NC(=O)C1=Cc2cccn2-c2ccccc2S1` the same measures were more than 123 µM and 56.2 µM. For `Cc1ccc(S(=O)(=O)ON2C(=O)c3cccc4cc([N+](=O)[O-])cc(c34)C2=O)cc1`, in that order: more than 63.1 µM and more than 63.1 µM.

In the case of `CCOC(=O)c1cc(=O)oc2c1N(C)c1ncccc1N2`, the EC50 was more than 200 µM and the IC50 worked out at 166 µM.

Regarding `O=C1c2ccccc2C(=O)N1C/C=N/NS(=O)(=O)c1ccc(F)cc1`, the EC50 was more than 363 µM and the IC50 is more than 363 µM. As for `O/N=C1/C(=C/c2ccc(Cl)c(Cl)c2)CCCC1C(NO)c1ccc(Cl)c(Cl)c1` (configuration not stated), the EC50 is more than 3.16 µM and the IC50 was more than 3.16 µM. Turning to `COc1ccc(NC(=S)N/N=C\c2ccc(NC(C)=O)cc2)cc1`, the outcome was inactive.

Consider `CCCC(C)SP(=S)(SC(C)CCC)SC(C)CCC` (configuration not stated), for which the EC50 is more than 200 µM and the IC50 is more than 200 µM. As for `Cc1c(C)c2c(c(N)c1C#N)C(=O)N(CCN1CCNCC1)C2=O`, the EC50 was more than 200 µM and the IC50 was found to be 20.4 µM. For `CN(C)/N=C1/CCC(C(F)(F)F)(C(F)(F)F)O1` the same measures were more than 200 µM and 6.76 µM. For `O=C(NC1CCCCC1)/C(=C\c1ccc(/C=C(/NC(=O)c2ccccc2)C(=O)NC2CCCCC2)cc1)NC(=O)c1ccccc1` the same measures were more than 200 µM and 120 µM. For `COc1ccc(-c2nnc3n(C)c4ccccc4n3c2=O)cc1`, in that order: more than 100 µM and more than 100 µM.

For `Nc1nc(SCCc2ccccc2)nc2nc3c(c(-c4ccccc4)c12)CCCC3`, the EC50 is more than 200 µM and the IC50 is more than 200 µM. Take `O=c1n(CC2CO2)c(=O)n(CC2CO2)c(=O)n1CC1CO1` (configuration not stated): the EC50 is more than 832 µM and the IC50 is 1.51 µM. For `O=C(O)c1onc2cc([N+](=O)[O-])ccc12`, in that order: more than 1200 µM and 219 µM. For `O=c1/c(=N\O)c(=O)c2ccccc2/c1=N\O` the same measures were more than 200 µM and 10 µM. `CC(c1ccc(Br)cc1)C(C(=O)O)C(=O)O` (configuration not stated): the outcome was inactive. As to `O=C1C2=C(c3ccccc31)C(c1ccccc1Cl)N1C(=O)CCSC1=N2` (configuration not stated), the EC50 is more than 26.3 µM and the IC50 was more than 26.3 µM. As to `C1CCC(N([P-]P([P-]N(C2CCCCC2)C2CCCCC2)N(C2CCCCC2)C2CCCCC2)C2CCCCC2)CC1.[C-]#[O+].[C-]#[O+].[C-]#[O+].[C-]#[O+].[C-]#[O+].[C-]#[O+].[Fe].[Fe]` (configuration not stated), the EC50 is more than 0.603 µM and the IC50 is more than 0.603 µM. With `COc1c(Cl)cc(C(=O)c2cc(Cl)c(OC)c(C(=O)O)c2)cc1C(=O)O`, the EC50 is more than 912 µM and the IC50 was more than 912 µM. `COc1ccc(C2S/C(=C\c3ccc([N+](=O)[O-])cc3)C(=O)N2NC(=O)Cc2ccccc2)cc1` (configuration not stated): the EC50 was more than 55 µM and the IC50 was more than 55 µM. For the compound `Cc1cc(=S)c2cc3c(cc2[nH]1)OCO3`, the EC50 is more than 200 µM and the IC50 is 79.4 µM. As for `COc1ccc(-n2sc3ncc(C)cc3c2=O)cc1`, the concentration for a half-maximal effect (EC50) is 0.49 µM and the IC50 amounted to 10.5 µM. Take `Cc1ccc(S(=O)(=O)NNS(C)(=O)=O)cc1`: the EC50 is more than 955 µM and the IC50 was 646 µM.

For `CSc1nc(NC2OCC(O)C(O)C2O)cc(=O)n1C` (configuration not stated), the outcome was inactive. Turning to `CC(=O)OCC1OC(n2c(-c3ccc(C)cc3)cc(-c3ccco3)c(C#N)c2=O)C(OC(C)=O)C(OC(C)=O)C1OC(C)=O` (configuration not stated), the EC50 is more than 16.2 µM and the 50% inhibitory concentration (IC50) was more than 16.2 µM. As for `CCOC(=O)c1nc2c(C)nc(N(C)C)nc2n(C)c1=O`, the EC50 is more than 200 µM and the IC50 is more than 200 µM. As to `CCc1n[nH]c(=O)n1N`, the outcome was inactive.

With `O=C1c2ccccc2-c2oc(=O)c3ccccc3c21`, the EC50 is more than 40.7 µM and the IC50 is more than 40.7 µM. As for `Cc1nn(C(=O)c2ccc(Cl)cc2)c2c1C(c1ccccc1)SC(N)=N2` (configuration not stated), the result was inactive.

In the case of `O=C1CC(=O)NC(=NNS(=O)(=O)c2ccc(Cl)cc2)N1`, the EC50 is more than 200 µM and the IC50 was more than 200 µM. For `CCOC(=O)C1=C(Nc2cccc3ccccc23)OC/C1=N\NC(=O)c1ccccc1O`, the EC50 is more than 60.3 µM and the half-maximal inhibitory concentration (IC50) is 17.4 µM. For `COS(=O)(=O)c1c(N)n(C)c(=O)n(C)c1=O`, in that order: more than 200 µM and 66.1 µM. With `NCCC1([N+](=O)[O-])CCNCC1`, the EC50 is more than 200 µM and the IC50 was more than 200 µM. Regarding `CC(C)OP(=O)(OC(C)C)/C(=N/Nc1ccc([N+](=O)[O-])cc1)NNC(N)=O`, the EC50 is more than 89.1 µM and the IC50 was found to be 26.3 µM. On to `O=S1(=O)OC(c2cc(Br)c(O)c(Br)c2)(c2cc(Br)c(O)c(Br)c2)c2c(Br)c(Br)c(Br)c(Br)c21`, for which the outcome was inactive. As for `CCOC(=O)C(COS(C)(=O)=O)(COS(C)(=O)=O)C(=O)OCC`, the EC50 is more than 251 µM and the IC50 worked out at 209 µM. For `CC(C)OC(=O)C(NC(=O)C(CC(=O)OCc1ccccc1)NC(=O)OCc1ccccc1)NC(=O)C1C(C)(C)CCC1(C)C` (configuration not stated) the same measures were more than 200 µM and 12.6 µM. For `O=c1[nH]cnc(O)c1N=Nc1ccc(/C=C/c2ccc(N=Nc3c(O)nc[nH]c3=O)cc2S(=O)(=O)O)c(S(=O)(=O)O)c1` the same measures were more than 63.1 µM and more than 63.1 µM. For `O=C(Nc1ccccn1)Nc1ccccn1`, in that order: more than 200 µM and 107 µM. Consider `COc1cc(C=Nc2ccc(Oc3ccc(Cl)cc3)c(Cl)c2)cc(OC)c1OC`, for which the EC50 is more than 200 µM and the IC50 came to 30.9 µM. For `COC(=O)N/N=C(\C)c1sc(-c2nc(C)c(/C(C)=N/NC(=O)OC)s2)nc1C`, in that order: more than 32.4 µM and more than 32.4 µM. On to `CC(=O)N1N=C(C)C2ON=C(c3ccc(Cl)cc3)P21` (configuration not stated), for which the outcome was inactive. As for `COC(=O)c1cc(C(=CCC(=O)O)c2cc(Cl)c(OC)c(C(=O)OC)c2)cc(Cl)c1OC`, the EC50 was more than 200 µM and the IC50 was found to be 97.7 µM. For `NC(CCCCCP(=O)(O)O)C(=O)O` (configuration not stated) the same measures were more than 200 µM and more than 200 µM. `O=C(/C=C/c1ccccc1)c1cc(C(=O)/C=C/c2ccccc2)c(O)cc1O`: the EC50 was more than 200 µM and the IC50 worked out at 69.2 µM. On to `CC(C)(C)c1cc(C(C)(C)O)c2c(c1)C(C)(C)OS2(C)Cl` (configuration not stated), for which the EC50 was more than 200 µM and the IC50 was 112 µM. For `CC(=O)OC1C2C(=C(C)C(=O)O[C@@H]2c2ccoc2)[C@@]2(C)C3CCC(C)(C(=O)O3)C12` (some centres not stated), in that order: 162 µM and more than 200 µM. As to `O=c1c2cc3c(cc2c2cccc4ccn1c42)OCO3`, the outcome was inactive. `CCCCCCn1c(SC)nc(COC(=O)NC)c1COC(=O)NC`: the EC50 was more than 200 µM and the IC50 worked out at 35.5 µM. For `O=C(c1ccccc1)N1C(=S)N(c2ccccn2)C(=Nc2ccccc2)C1=Nc1ccccc1` the same measures were more than 200 µM and 8.71 µM. In the case of `CCOC(=O)c1c(SC(=O)c2ccc(C(C)(C)C)cc2)n(-c2ccccc2)c(=S)n(-c2ccccc2)c1=O`, the EC50 is more than 200 µM and the 50% inhibitory concentration (IC50) is 27.5 µM.

Usually EC50 stands for the concentration that produces a half-maximal response. As a reminder, the IC50 is the concentration at which inhibition is half-maximal. The low end stands for greater potency in that assay, the high end for weaker potency in that assay.
